From US10266577B2, “GLP-1 derivatives, and uses thereof” (Novo Nordisk A/S, priority 2013, dated 2019)
Numbered stars: 1 amine (or outer) side, 2 acyl side, 3 side chain; on linkers, the order of the positions; unused ones are H or OH. Bridge positions count the residues as written; N and C are the ends. Square brackets hold non-standard residues; d marks the D form. Ends that are not written are not given here. I, II: the chains in the order shown. * marks the point of attachment. C18 diacid = O=C(O)CCCCCCCCCCCCCCCCC(=O)*; γGlu = O=C(O)[C@H](CCC(=O)[*:2])N[*:1]; Aib = CC(C)(N)C(=O)O

Assays:
[1] = Pharmacokinetic study in minipigs (i.v.); settings: male, Göttingen, minipig, in vivo, iv, 2 nmol/kg
Procedure: (§1) The purpose of this study is to determine the protraction in vivo of the GLP-1 derivatives after i.v. administration to minipigs, i.e. the prolongation of their time in the body and thereby their time of action. This is done in a pharmacokinetic (PK) study, where the terminal half-life of the derivative in question is determined. By terminal half-life is meant the time it takes to halve a certain plasma concentration in the terminal elimination phase.
(§2) Male Göttingen minipigs were obtained from Ellegaard Göttingen Minipigs (Dalmose, Denmark) approximately 7-14 months of age and weighing approximately 16-35 kg were used in the studies. The minipigs were housed either individually (pigs with permanent catheters) or in a group and fed restrictedly once or twice daily with SDS minipig diet (Special Diets Services, Essex, UK).
(§3) After at least 2 weeks of acclimatisation two permanent central venous catheters were implanted in vena cava caudalis or cranialis in each animal. The animals were allowed 1 week recovery after the surgery, and were then used for repeated pharmacokinetic studies with a suitable wash-out period between successive GLP-1 derivative dosings.
(§4) Blood samples (for example 0.8 ml) were collected in EDTA buffer (8 mM) and then centrifuged at 4° C. and 1942G for 10 minutes.
(§5) Plasma was pipetted into Micronic tubes on dry ice, and kept at −20° C. until analysed for plasma concentration of the respective GLP-1 compound using LOCI. Individual plasma concentration-time profiles were analyzed by a non-compartmental pharmacokinetic method in Phoenix v. 6.2 (Pharsight Inc., Mountain View, Calif., USA), or other relevant software for PK analysis, and the resulting terminal half-lives (harmonic mean) determined.

[2] = target: T1, human GLP-1 receptor (Homo sapiens, UniProt P43220); test: In vitro potency: CRE luciferase reporter gene assay in BHK cells expressing the human GLP-1 receptor; type: cell-based; settings: whole cell reporter gene assay, BHK clone FCW467-12A/KZ10-1; averages of at least two replicates
T1 construct: expressed in transfected cells; host or cells: BHK cells (parent line BHKTS13), clone FCW467-12A; membrane preparation
T1 sequence (P43220 24-463): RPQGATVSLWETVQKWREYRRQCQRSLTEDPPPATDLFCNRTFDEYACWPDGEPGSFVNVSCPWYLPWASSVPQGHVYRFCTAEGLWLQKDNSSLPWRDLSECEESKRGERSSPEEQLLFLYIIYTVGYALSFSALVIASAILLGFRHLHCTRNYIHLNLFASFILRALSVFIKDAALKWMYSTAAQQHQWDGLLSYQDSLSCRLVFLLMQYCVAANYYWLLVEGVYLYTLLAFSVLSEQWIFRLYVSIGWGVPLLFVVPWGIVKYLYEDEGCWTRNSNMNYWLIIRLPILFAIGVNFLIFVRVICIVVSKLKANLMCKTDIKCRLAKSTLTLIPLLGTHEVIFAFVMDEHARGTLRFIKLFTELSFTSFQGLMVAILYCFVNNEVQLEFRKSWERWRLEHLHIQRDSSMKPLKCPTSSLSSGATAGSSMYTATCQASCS
Procedure: The purpose of this example is to test the activity, or potency, of the GLP-1 derivatives in vitro. The in vitro potency is the measure of human GLP-1 receptor activation in a whole cell assay.
In vitro potency was determined by measuring the response of the human GLP-1 receptor in a reporter gene assay. The assay was performed in a stably transfected BHK cell line that expresses the human GLP-1 receptor and contains the DNA for the cAMP response element (CRE) coupled to a promoter and the gene for firefly luciferase (CRE luciferase). When the human GLP-1 receptor is activated it results in the production of cAMP, which in turn results in the luciferase protein being expressed. When assay incubation is completed the luciferase substrate (luciferin) is added and the enzyme converts luciferin to oxyluciferin to produce bioluminescence. The luminescence is measured as the readout for the assay.
The cells were cultured at 5% CO2 in Cell Culture Medium. They were aliquoted and stored in liquid nitrogen. Before each assay an aliquot is taken up and washed twice in PBS before being suspended at the desired concentration in the assay specific buffer. For 96-well plates the suspension was made to give a final concentration of 5×10^3 cells/well.
The following chemicals were used in the assay: Pluronic F-68 (10%) (Gibco 2404), human serum albumin (HSA) (Sigma A9511), ovalbumin (Sigma A5503), DMEM w/o phenol red (Gibco 11880-028), 1 M Hepes (Gibco 15630), Glutamax 100× (Gibco 35050) and steadylite plus (PerkinElmer 6016757).
Cell Culture Medium consisted of DMEM medium with 10% FBS (Fetal Bovine Serum; Invitrogen 16140-071), 1 mg/ml G418 (Invitrogen 15140-122), 240 nM MTX (methotrexate; Sigma M9929) and 1% pen/strep (penicillin/streptomycin; Invitrogen 15140-122).
Assay Medium consisted of DMEM w/o phenol red, 10 mM Hepes and 1× Glutamax. The Assay Buffer consisted of 2% ovalbumin and 0.2% Pluronic F-68 in Assay Medium.
1) Cell stocks were thawed in a 37° C. water bath.
2) Cells were washed three times in PBS.
3) The cells were counted and adjusted to 5×10^3 cells/50 μl (1×10^5 cells/ml) in Assay Medium. A 50 μl aliquot of cells was transferred to each well in the assay plate.
4) Stocks of the test compounds and reference compounds were diluted to a concentration of 0.2 pM in Assay Buffer. […] Compounds were tested at the following final concentrations: 1×10^−7 M, 1×10^−8 M; 1×10^−9 M, 1×10^−10 M, 1×10^−11 M, 1×10^−12 M, 1×10^−13 M, and 1×10^−14 M. 6) The assay plate was incubated for 3 h in a 5% CO2 incubator at 37° C. 7) The assay plate was removed from the incubator and allowed to stand at room temperature for 15 min. 8) A 100 μl aliquot of steadylite plus reagent was added to each well of the assay plate (reagent was light sensitive). 9) Each assay plate was covered with aluminum foil to protect it from light and shaken for 30 min at room temperature. 10) Each assay plate was read in a Packard TopCount NXT instrument. Calculations and Results
The data from the TopCount instrument were transferred to GraphPad Prism software. The software performs a non-linear regression (log(agonist) vs response).
A minimum of two replicates was measured for each sample. The reported values are averages of the replicates.

[3] = in vivo; settings: male, Göttingen, minipig, iv
Procedure: as §1, §2, §3, §4, §5

[4] = target: T1, human GLP-1 receptor; test: GLP-1 receptor binding: competitive binding assay (125I-GLP-1, SPA) on isolated membranes at low and high HSA; settings: displacement of 125I-GLP-1; for IC50: high serum albumin (2.0% HSA final assay concentration)
Procedure: The purpose of this example is to test the receptor binding of the GLP-1 derivatives in vitro. The receptor binding is a measure of affinity of a derivative for the human GLP-1 receptor.
In this type of assay a labelled ligand (in this case ^125I-GLP-1) is bound to the receptor. Each derivative is added in a series of concentrations to isolated membranes containing the human GLP-1 receptor and displacement of the labelled ligand is monitored. The receptor binding is reported as the concentration at which half of the labelled ligand is displaced from the receptor, the IC50 value.
The following chemicals were used in the assay: Human serum albumin (HSA) (Sigma A1653), DMEM w/o phenol red (Gibco 11880-028), Pen/strep (Invitrogen 15140-122), G418 (Invitrogen 10131-027), 1 M Hepes (Gibco 15630), EDTA (Invitrogen 15575-038), PBS (Invitrogen 14190-094), fetal calf serum (Invitrogen 16140-071), EGTA, MgCl2 (Merck 1.05832.1000), Tween 20 (Amresco 0850C335), SPA particles (wheat germ agglutinin (WGA) SPA beads, Perkin Elmer RPNQ0001), [^125I]-GLP-1]-(7-36)NH2 (produced in-house), OptiPlate™-96 (Packard 6005290).
Buffer 1 consisted of 20 mM Na-HEPES plus 10 mM EDTA and pH was adjusted to 7.4. Buffer 2 consisted of 20 mM Na-HEPES plus 0.1 mM EDTA and pH was adjusted to 7.4. Assay buffer consisted of 50 mM HEPES supplemented with 5 mM EGTA, 5 mM MgCl2, 0.005% Tween 20 and pH was adjusted to 7.4. An 8% albumin stock consisted of HSA dissolved at 8% (w/v) in assay buffer. An 0.02% albumin stock consisted of HSA dissolved at 0.02% (w/v) in assay buffer.
The cells express the human GLP-1 receptor.
The cells were grown at 5% CO2 in DMEM, 10% fetal calf serum, 1% Pen/Strep (Penicillin/Streptomycin) and 1.0 mg/ml of the selection marker G418.
To make a membrane preparation the cells were grown to approximately 80% confluence. The cells were washed twice in phosphate-buffered saline and harvested. The cells were pelleted using a brief centrifugation and the cell pellet was kept on ice. The cell pellet was homogenised with ULTRA-THURRAX™ dispersing instrument for 20-30 seconds in a suitable amount of buffer 1 (e.g., 10 ml). The homogenate was centrifuged for 15 minutes. The pellet was re-suspended (homogenised) in 10 ml buffer 2 and centrifuged. This step was repeated once more. The resulting pellet was re-suspended in buffer 2 and the protein concentration was determined. The membranes were aliquoted and stored at minus 80° C.
For the receptor binding assay in the presence of low HSA (0.005%) 50 μl of the assay buffer was added to each well of an assay plate. Assay continued with step 3.
For the receptor binding assay in the presence of high HSA (2%) 50 μl of the 8% albumin stock was added to each well of an assay plate. Assay continued with step 3.
Cell membrane aliquots were thawed and diluted to their working concentration. Fifty μl were added to each well in the assay plate.
WGA SPA beads were suspended in assay buffer at 20 mg/ml. The suspension was diluted to 10 mg/ml in assay buffer just prior to addition to the assay plate. Fifty μl were added to each well in the assay plate.
The incubation was started by adding 25 μl of 480 pM solution of [^125I]-GLP-1]-(7-36)NH2 to each well of the assay plate. A 25 μl aliquot was reserved for measuring total counts/well.
The assay plate was incubated for 2 h at 30° C.
The assay plate was centrifuged for 10 min.
The assay plate was read in a Packard TopCount NXT instrument.
The data from the TopCount instrument were transferred to GraphPad Prism software. The software averaged the values for the replicates and performed a non-linear regression. IC50 values were calculated by the software and reported in nM.

Compound	half-life [1] [h]	EC50 [2] [nM]	half-life [3] [h]	IC50 [4] [nM]	Low HSA IC50 ([4]; Low HSA IC50, low serum albumin (max. 0.001% final assay concentration)) [nM]
CC[C@H](C)[C@H](NC(=O)[C@H](Cc1ccccc1)NC(=O)[C@H](CCC(=O)O)NC(=O)[C@H](CCCNC(=N)N)NC(=O)[C@H](C)NC(=O)[C@H](C)NC(=O)[C@H](CCC(N)=O)NC(=O)[C@H](CCCCNC(=O)COCCOCCNC(=O)COCCOCCNC(=O)CC[C@H](NC(=O)[C@H]1CC[C@H](CNC(=O)CCCCCCCCCCCCCCCS(=O)(=O)O)CC1)C(=O)O)NC(=O)[C@H](CCC(=O)O)NC(=O)[C@H](CC(C)C)NC(=O)[C@H](Cc1ccc(O)cc1)NC(=O)[C@H](CCCCNC(=O)COCCOCCNC(=O)COCCOCCNC(=O)CC[C@H](NC(=O)[C@H]1CC[C@H](CNC(=O)CCCCCCCCCCCCCCCS(=O)(=O)O)CC1)C(=O)O)NC(=O)[C@H](CO)NC(=O)[C@@H](NC(=O)[C@H](CC(=O)O)NC(=O)[C@H](CO)NC(=O)[C@@H](NC(=O)[C@H](Cc1ccccc1)NC(=O)[C@@H](NC(=O)CNC(=O)[C@H](CCC(=O)O)NC(=O)C(C)(C)NC(=O)[C@@H](N)Cc1c[nH]cn1)[C@@H](C)O)[C@@H](C)O)C(C)C)C(=O)N[C@@H](CCCCNC(=O)COCCOCCNC(=O)COCCOCCNC(=O)CC[C@H](NC(=O)[C@H]1CC[C@H](CNC(=O)CCCCCCCCCCCCCCCS(=O)(=O)O)CC1)C(=O)O)C(=O)N[C@@H](Cc1c[nH]c2ccccc12)C(=O)N[C@@H](CC(C)C)C(=O)N[C@H](C(=O)N[C@@H](CCCNC(=N)N)C(=O)NCC(=O)N[C@@H](CCCNC(=N)N)C(=O)NCC(=O)O)C(C)C [Example 1]	162				
CC[C@H](C)[C@H](NC(=O)[C@H](Cc1ccccc1)NC(=O)[C@H](CCC(=O)O)NC(=O)[C@H](CCCNC(=N)N)NC(=O)[C@H](C)NC(=O)[C@H](C)NC(=O)[C@H](CCC(N)=O)NC(=O)[C@H](CCCCNC(=O)COCCOCCNC(=O)COCCOCCNC(=O)[C@@H](N)CCCCNC(=O)[C@@H](N)CCCCNC(=O)CCCCCCCCCCCCCCCS(=O)(=O)O)NC(=O)[C@H](CCC(=O)O)NC(=O)[C@H](CC(C)C)NC(=O)[C@H](Cc1ccc(O)cc1)NC(=O)[C@H](CCCCNC(=O)COCCOCCNC(=O)COCCOCCNC(=O)[C@@H](N)CCCCNC(=O)[C@@H](N)CCCCNC(=O)CCCCCCCCCCCCCCCS(=O)(=O)O)NC(=O)[C@H](CO)NC(=O)[C@@H](NC(=O)[C@H](CC(=O)O)NC(=O)[C@H](CO)NC(=O)[C@@H](NC(=O)[C@H](Cc1ccccc1)NC(=O)[C@@H](NC(=O)CNC(=O)[C@H](CCC(=O)O)NC(=O)C(C)(C)NC(=O)[C@@H](N)Cc1c[nH]cn1)[C@@H](C)O)[C@@H](C)O)C(C)C)C(=O)N[C@@H](CCCCNC(=O)COCCOCCNC(=O)COCCOCCNC(=O)[C@@H](N)CCCCNC(=O)[C@@H](N)CCCCNC(=O)CCCCCCCCCCCCCCCS(=O)(=O)O)C(=O)N[C@@H](Cc1c[nH]c2ccccc12)C(=O)N[C@@H](CC(C)C)C(=O)N[C@H](C(=O)N[C@@H](CCCNC(=N)N)C(=O)NCC(=O)N[C@@H](CCCNC(=N)N)C(=O)NCC(=O)O)C(C)C [Example 14]		0.018	140	100	
CC[C@H](C)[C@H](NC(=O)[C@H](Cc1ccccc1)NC(=O)[C@H](CCC(=O)O)NC(=O)[C@H](CCCNC(=N)N)NC(=O)[C@H](C)NC(=O)[C@H](C)NC(=O)[C@H](CCC(N)=O)NC(=O)[C@H](CCCCNC(=O)COCCOCCNC(=O)COCCOCCNC(=O)COCCOCCNC(=O)COCCOCCNC(=O)COCCOCCNC(=O)[C@@H](N)CCCCNC(=O)[C@@H](N)CCCCNC(=O)CCCCCCCCCCCCCCCCC(=O)O)NC(=O)[C@H](CCC(=O)O)NC(=O)[C@H](CC(C)C)NC(=O)[C@H](Cc1ccc(O)cc1)NC(=O)[C@H](CCCCNC(=O)COCCOCCNC(=O)COCCOCCNC(=O)COCCOCCNC(=O)COCCOCCNC(=O)COCCOCCNC(=O)[C@@H](N)CCCCNC(=O)[C@@H](N)CCCCNC(=O)CCCCCCCCCCCCCCCCC(=O)O)NC(=O)[C@H](CO)NC(=O)[C@@H](NC(=O)[C@H](CC(=O)O)NC(=O)[C@H](CO)NC(=O)[C@@H](NC(=O)[C@H](Cc1ccccc1)NC(=O)[C@@H](NC(=O)CNC(=O)[C@H](CCC(=O)O)NC(=O)C(C)(C)NC(=O)[C@@H](N)Cc1c[nH]cn1)[C@@H](C)O)[C@@H](C)O)C(C)C)C(=O)N[C@@H](CCCCNC(=O)COCCOCCNC(=O)COCCOCCNC(=O)COCCOCCNC(=O)COCCOCCNC(=O)COCCOCCNC(=O)[C@@H](N)CCCCNC(=O)[C@@H](N)CCCCNC(=O)CCCCCCCCCCCCCCCCC(=O)O)C(=O)N[C@@H](Cc1c[nH]c2ccccc12)C(=O)N[C@@H](CC(C)C)C(=O)N[C@H](C(=O)N[C@@H](CCCNC(=N)N)C(=O)NCC(=O)N[C@@H](CCCNC(=N)N)C(=O)NCC(=O)O)C(C)C [Example 16]		0.014			0.4
I: H[Aib]EGTFTSDVSKYLEGQAARKFIAWLVRGRK / II: {C18 diacid-γGlu}-SSSSSS / III: {C18 diacid-γGlu}-SSSSSS / IV: {C18 diacid-γGlu}-SSSSSS (amide I:12-III:C, I:21-II:C, I:31-IV:C) [Example 9]		0.067		> 1000	
